The text below walks through data of patent US20070010548A1, “Compounds having inhibitive activity of phosphatidylinositol 3-kinase and methods of use thereof” (ZENTARIS GmbH, priority 2003, published 2007).

The target in experiment [1] is T1, PI 3-K alpha (Homo sapiens, UniProt P42336).
T1 construct: made in house; host or cells: Sf9 cells, baculovirus expression system; constructs from the lab of Dr. Alex Toker, Harvard University
Put plainly: PI 3-K activity assay, IC50 determination (AlphaScreen luminescent or Fluorescence Polarization). The format is biochemical. Conditions: inhibition of enzyme activity in vitro. The procedure:
Recombinant heterodimeric PI 3-K alpha, consisting of a p110 catalytic subunit and a GST-tagged p85 regulatory subunit, was expressed in Sf9 cells using a baculoviras expression system. Expression constructs were obtained from the lab of Dr. Alex Toker, Harvard University. The method is well known to those skilled in the art and is also described in Stoyanov et al., Science 269, 690-693 (1995).and Stoyanova et al., Biochem. J. 324 :489-495. (1997).
PI 3-kinase reactions were performed in a reaction buffer containing 5 mM HEPES, pH 7, 2.5 mM MgCl2, and 25 μM ATP, containing 50 ng of recombinant PI 3-K with 10 picomoles of diC8 PI(4,5)P2 (Echelon Biosciences) as the substrate. The reactions were allowed to proceed at room temperature for 1-3 hours, then quenched by the addition of EDTA to a final concentration of 10 mM. The final reaction volumes were 10 μl. The compounds to be tested for inhibition were added to a final concentration of 1 μM from stocks in DMSO. The final concentration of DMSO was 1%.
Conversion of the substrate to PI(3,4,5)P3 was determined using a competition assay using Amplified Luminescent Proximity Homogeneous Assay (ALPHA®) technology developed by Perkin Elmer. 0.25 picomoles of recombinant GST-Grp1-PH domain protein and 0.25 picomoles of biotinylated diC6 PI(3,4,5)P3 (Echelon Biosciences) were added to each reaction mixture. Donor and Acceptor beads from the AlphaScreen® GST (Glutathione-S-Transferase) Detection Kit (PerkinElmer) were added to a final concentration of 20 μg/ml. The final volume was 25 μl. The reactions were incubated at 37° C. for two hours, and the luminescent signal was read on a Fusion α microplate reader. Percent inhibition of enzyme activity was determined by comparison to no enzyme (100% inhibition) and DMSO alone (0% inhibition) controls.
An alternate method used for detecting substrate conversion to PI(3,4,5)P3 was a competitive Fluorescence Polarization assay. 125 picomoles of recombinant GST-Grp1-PH domain protein and 0.25 picomoles of TAMRA-I(1,3,4,5)P4 (Echelon Biosciences) were added to each reaction mixture The final volume was 25 μl. Polarization values were measured on a microplate reader using 550 nm excitation/580 nm polarizing emission filters. BODIPY-TMR-I(1,3,4,5)P4 or BODIPY-TMR-PI(3,4,5)P3 could substitute as the fluorescent tracers in this assay. Percent inhibition of enzyme activity was determined by comparison to no enzyme (100% inhibition) and DMSO alone (0% inhibition) controls.
A library of potential PI 3-K inhibitors was tested for activity against PI 3-K alpha in the following manner. From the active compounds identified, twelve were selected as representatives from different chemical groups present in the library and subjected to further analysis. IC50 values were determined for the selected compounds of the present invention. Enzyme activity assays were performed as previously described, in the presence of a range of compound concentrations to allow determination of IC50 values. Enzyme activity and percent inhibition was determined using the AlphaScreen® luminescent assay or a Fluorescence Polarization assay as previously described. These inhibitors may also show activity against other PI 3-K isoforms, including PI 3-K beta, gamma, and delta.
On the technique in general: Alpha assays give light when donor and acceptor beads are brought close together.

The subject of experiment [2] is tumor cells altered in PI 3-K/PTEN. Description: Cellular growth inhibition assays on tumor cells altered in PI 3-K/PTEN. The format is cell-based. The note with it: for IC50: approximate, read-out: Approx. mIC50 in cellular assays. The procedure:
(§1) The ovarian cancer cell line SKOV3 is not altered in PI 3-K signaling and should be less sensitive to the anti-proliferative effects produced by treatment with PI 3-K inhibitors, while the OVCAR3 cell line, which is altered in PI 3-K signaling, via amplification of PI 3-K activity, should be sensitive. SKOV3 cells were seeded in 96-well cell culture plates (Greiner) at a density of 20,000 cells per well in McCoys 5A media (GibcoBRL) with 10% fetal calf serum and 20 mM L-glutamine. OVCAR3 cells were seeded at a density of 15,000 cells per well in RPMI 1640 media (GibcoBRL) containing 20 mM 1-glutamine, 0.01 ng/ml bovine insulin, 10 mM Hepes pH 7.4, 1 mM sodium pyruvate, 2.5 g/L glucose, and 20% fetal calf serum. After 24 hours, compounds were added to cell media to a final concentration of 1 μM, and the cells were grown in the presence of the compounds for 48 hours, in media containing 0.5% fetal calf serum. Viability was determined using a MTT cell proliferation assay (R and D Systems) and comparison to DMSO alone controls (100% viability). Compounds which result in reduced viability may act either by inhibiting cell proliferation or by inducing apoptosis (programmed cell death).
Selected compounds were evaluated against paired ovarian cancer cell lines at a range of concentrations to determine effective concentrations for growth inhibition.
MDA-MB-468 and MDA-MB-231 cells were seeded in 96-well cell culture plates (Greiner) at a density of 20,000 cells per well in RMPI media (GibcoBRL) with 10% fetal calf serum and 20 mM L-glutamine. After 24 hours, compounds were added to cell media to a final concentrations ranging from 10 nM to 100 μM, and the cells were grown in the presence of the compounds for 48 hours in RMPI media containing 0.5% fetal calf serum and 20 mM L-glutamine. Viability was determined using a MTT cell proliferation assay (R and D Systems) and comparison to DMSO alone controls (100% viability). Compounds which result in reduced viability may act either by inhibiting cell proliferation or by inducing apoptosis (programmed cell death). […] Selected compounds were evaluated against the paired breast cancer cell lines at a range of concentrations to determine effective concentrations for growth inhibition.
Table 3 summarizes the data for several compounds of this structural group, including the IC50 for inhibition of enzyme activity in vitro, cellular mIC50 and anti-proliferative activity against tumor cells altered in PI 3-K mediated signaling, and effects on cellular levels of phospho-Akt.

For experiment [3], the system named is OVCAR3 cells. Put plainly: MTT cell proliferation/viability assay, OVCAR3 ovarian cancer cells. It is filed as cell-based. Conditions: Homo sapiens. The procedure:
as §1
(§2) Many of these also show similar selective effects on cell growth. Table 2 summarizes the results of two separate cell proliferation experiments for selected compounds of the present invention.

In experiment [4] the test system is SKOV3 cells. Put plainly: MTT cell proliferation/viability assay, SKOV3 ovarian cancer cells. It is filed as cell-based. The note with it: Homo sapiens. How it is done:
as §1, §2

[5] abbreviates: OVCAR-3, 48 hours, MTT, DMSO alone controls = 100% viability, Trial 1, read-out: Trial 1 OVCAR3 (viability).
[6] abbreviates: OVCAR-3, 48 hours, MTT, DMSO alone controls = 100% viability, Trial 2, read-out: Trial 2 OVCAR3 (viability).
Where [7] appears, read: OVCAR-3, average of Trial 1 and Trial 2, 48 hours, read-out: average OVCAR-3 (viability).
Where [8] appears, read: SK-OV-3, 48 hours, MTT, DMSO alone controls = 100% viability, Trial 1, read-out: Trial 1 SKOV-3 (viability).
[9] abbreviates: SK-OV-3, 48 hours, MTT, DMSO alone controls = 100% viability, Trial 2, read-out: Trial 2 SKOV-3 (viability).
The mark [10] stands for this setting: SK-OV-3, average of Trial 1 and Trial 2, 48 hours, read-out: Average SKOV3 (viability).

Like-named read-outs stand apart in the source and are kept apart here. Some results are limits rather than exact numbers.

T1 sequence (P42336 whole entry, species assumed): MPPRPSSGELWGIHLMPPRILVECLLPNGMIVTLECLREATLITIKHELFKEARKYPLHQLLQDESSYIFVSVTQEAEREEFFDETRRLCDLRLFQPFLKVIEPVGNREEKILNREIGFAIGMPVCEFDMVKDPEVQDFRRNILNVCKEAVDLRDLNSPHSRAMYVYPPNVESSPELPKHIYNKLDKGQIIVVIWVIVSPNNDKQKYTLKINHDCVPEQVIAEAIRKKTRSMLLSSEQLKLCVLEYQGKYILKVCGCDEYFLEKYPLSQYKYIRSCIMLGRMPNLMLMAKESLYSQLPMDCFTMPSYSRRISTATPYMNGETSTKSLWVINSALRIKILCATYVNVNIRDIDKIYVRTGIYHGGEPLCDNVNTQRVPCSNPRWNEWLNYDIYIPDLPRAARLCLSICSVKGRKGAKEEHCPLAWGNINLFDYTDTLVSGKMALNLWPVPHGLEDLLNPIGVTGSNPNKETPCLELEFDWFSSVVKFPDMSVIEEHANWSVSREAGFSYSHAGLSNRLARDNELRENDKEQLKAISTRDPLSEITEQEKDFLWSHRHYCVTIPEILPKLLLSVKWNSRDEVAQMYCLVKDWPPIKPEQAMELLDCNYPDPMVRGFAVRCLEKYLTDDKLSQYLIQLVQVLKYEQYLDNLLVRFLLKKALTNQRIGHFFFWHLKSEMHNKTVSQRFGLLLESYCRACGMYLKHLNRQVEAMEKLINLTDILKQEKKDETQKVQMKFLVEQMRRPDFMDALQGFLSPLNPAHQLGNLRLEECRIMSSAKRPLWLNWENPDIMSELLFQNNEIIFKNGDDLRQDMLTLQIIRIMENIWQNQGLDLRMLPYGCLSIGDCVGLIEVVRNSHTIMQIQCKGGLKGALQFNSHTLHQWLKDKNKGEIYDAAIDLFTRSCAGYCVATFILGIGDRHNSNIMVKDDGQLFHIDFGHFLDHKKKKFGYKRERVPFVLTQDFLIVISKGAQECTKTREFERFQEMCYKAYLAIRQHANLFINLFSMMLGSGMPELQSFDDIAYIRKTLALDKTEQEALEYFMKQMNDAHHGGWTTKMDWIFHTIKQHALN
T1 sequence (P27986 whole entry partner, species assumed): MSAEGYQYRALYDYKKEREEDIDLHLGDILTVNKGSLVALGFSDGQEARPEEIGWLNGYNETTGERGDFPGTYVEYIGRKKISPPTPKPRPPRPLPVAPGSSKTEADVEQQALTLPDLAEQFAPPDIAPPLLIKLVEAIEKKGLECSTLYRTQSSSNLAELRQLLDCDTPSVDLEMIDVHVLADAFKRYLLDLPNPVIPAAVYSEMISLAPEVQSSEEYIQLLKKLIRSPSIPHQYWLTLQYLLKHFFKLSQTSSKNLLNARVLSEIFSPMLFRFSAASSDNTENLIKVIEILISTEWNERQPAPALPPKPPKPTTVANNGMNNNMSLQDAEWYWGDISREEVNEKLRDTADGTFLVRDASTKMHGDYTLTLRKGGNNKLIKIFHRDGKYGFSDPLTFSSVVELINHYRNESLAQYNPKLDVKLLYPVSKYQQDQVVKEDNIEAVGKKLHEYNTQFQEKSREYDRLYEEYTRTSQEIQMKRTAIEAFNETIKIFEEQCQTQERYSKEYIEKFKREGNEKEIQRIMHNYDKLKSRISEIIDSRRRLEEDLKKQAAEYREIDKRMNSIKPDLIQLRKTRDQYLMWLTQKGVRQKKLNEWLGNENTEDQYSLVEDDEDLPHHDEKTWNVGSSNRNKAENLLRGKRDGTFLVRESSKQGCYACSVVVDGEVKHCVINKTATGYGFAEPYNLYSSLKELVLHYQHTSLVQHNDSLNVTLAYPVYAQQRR

In experiment [1], `CC1(C)CC(=O)C2=C(C1)Nc1c(c(C(C)(C)C)nn1C(C)(C)C)C2c1ccc(OCc2ccccc2)c(OCc2ccccc2)c1` (stereo not drawn) [Compound 963985] came in with an IC50 of 0.5 µM. In addition, in experiment [2], the “Anti-proliferative effects on tumor cells altered in PI 3-K/PTEN” value (from here on “Anti-proliferative effects”) is given as “Yes” and the IC50 was 1 µM.
As usually defined, the viability is a read-out of living cells in per cent, often relative to untreated cells. As for `CC1(C)CC(=O)C2=C(C1)Nc1c(c(-c3ccccc3)nn1-c1cccc(F)c1)C2c1ccc(C(F)(F)F)cc1` (stereo not drawn) [Compound 964661], the viability at 1 µM in experiment [3] (setting [5]) is 36%; in experiment [3] (setting [6]), 58.9%; in experiment [3] (setting [7]), 47.5%; in experiment [4] (setting [8]), 99%; in experiment [4] (setting [9]) it was 77.1%; in experiment [4] (setting [10]), 88%. The IC50 was 8 µM in experiment [1] and under 20 µM in experiment [2]. The “Anti-proliferative effects” value in experiment [2] was “Yes”.
As for `Cc1ccc(C2C3=C(CC(C)(C)CC3=O)Nc3c2c(C(C)(C)C)nn3-c2ccc(C)cc2)cc1` (stereo not drawn) [Compound 964028, 3-t-butyl-4-(4-methylphenyl)-7,7-dimethyl-1-(4-methylphenyl)-4,7,8,9-tetrahydro-1H-pyrazolo[3,4-b]quinolin-5(6H)-one], the viability at 1 µM in experiment [3] (setting [5]) stood at 42%; in experiment [3] (setting [6]), 45.4%; in experiment [3] (setting [7]), 43.7%; in experiment [4] (setting [8]), 100%; in experiment [4] (setting [9]) it was 99.1%; in experiment [4] (setting [10]) it was 99.5%. For the same compound, the values for the IC50 in experiment [1] and in experiment [2] were 1 µM and 10 µM, respectively. In addition, in experiment [2], the “Anti-proliferative effects” value was “Yes”.
For the compound `COc1ccccc1C1C2=C(CC(C)(C)CC2=O)Nc2c1c(C(C)(C)C)nn2-c1ccc(Cl)c(C)c1` (stereo not drawn) [Compound 964247], the viability at 1 µM in experiment [3] (setting [5]) was 42%; in experiment [3] (setting [6]) it was 43.7%; in experiment [3] (setting [7]), 42.9%; in experiment [4] (setting [8]), 100%; in experiment [4] (setting [9]), 100%; in experiment [4] (setting [10]), 100%. Also, the IC50 in experiment [1] is 7 µM; in experiment [2], under 20 µM. Further, in experiment [2], the “Anti-proliferative effects” value is given as “Yes”.
Turning to `COc1ccc(-n2nc(C(C)(C)C)c3c2NC2=C(C(=O)CC(C)(C)C2)C3c2ccccc2Cl)cc1` (stereo not drawn) [Compound 964076, 3-t-butyl-4-(2-chlorophenyl)-7,7-dimethyl-1-(4-methoxyphenyl)-4,7,8,9-tetrahydro-1H-pyrazolo[3,4-b]quinolin-5(6H)-one], the viability at 1 µM in experiment [3] (setting [5]) was found to be 41%; in experiment [3] (setting [6]) it was 53.2%; in experiment [3] (setting [7]) it was 47.1%; in experiment [4] (setting [8]), 100%; in experiment [4] (setting [9]), 92.9%; in experiment [4] (setting [10]), 96.5%. Further, the IC50 in experiment [1] is 3 µM; in experiment [2], 10 µM. The “Anti-proliferative effects” value in experiment [2] is “Yes”.
For the compound `COc1ccc(OC)c(C2C3=C(CC(C)(C)CC3=O)Nc3c2c(C(C)(C)C)nn3-c2ccc(C)cc2C)c1` (stereo not drawn) [Compound 964232], the viability at 1 µM in experiment [3] (setting [5]) came to 45%; in experiment [3] (setting [6]) it was 71%; in experiment [3] (setting [7]) it was 58%; in experiment [4] (setting [8]), 98%; in experiment [4] (setting [9]), 100%; in experiment [4] (setting [10]) it was 99%. Besides, the IC50 in experiment [1] was 5 µM; in experiment [2] it was under 20 µM. Besides, the “Anti-proliferative effects” value in experiment [2] is listed as “Yes”.
For `CC1(C)CC(=O)C2=C(C1)Nc1c(c(C(C)(C)C)nn1-c1ccc(Cl)c(Cl)c1)C2c1cccc(OCc2ccccc2)c1` (stereo not drawn) [Compound 964260], the viability at 1 µM turned out to be 41% in experiment [3] (setting [5]); 53% in experiment [3] (setting [6]); 47% in experiment [3] (setting [7]); 93% in experiment [4] (setting [8]); 85% in experiment [4] (setting [9]); 89% in experiment [4] (setting [10]). Moreover, the IC50 is 8 µM in experiment [1] and under 20 µM in experiment [2]. Moreover, the “Anti-proliferative effects” value in experiment [2] is “Yes”.
